The supplement of paper PMC10307832

Tests used:
Assay in all cases: relative viability (nuclei count vs DMSO), 5 days (fraction); higher = more cells survive
201T = system: 201T
Method in brief: (§1)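 Relative viability is defined as nuclei in treated wells over nuclei in vehicle wells. Duplicate plates were run and medians reported. Lung cancer cell lines in 1536-well plates were dosed by pin tool one day after seeding, with one drug or with a fixed anchor-drug dose plus five library-drug doses (not always all listed) in √10 steps, and nuclei were counted after 5 days.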

ChaGo-K-1 = system: ChaGo-K-1
Method in brief: as §1

EPLC-272H = system: EPLC-272H
Method in brief: as §1

H3255 = system: H3255
Method in brief: as §1

HCC-78 = system: HCC-78
Method in brief: as §1

HCC-827 = system: HCC-827
Method in brief: as §1

LC-2-ad = system: LC-2-ad
Method in brief: as §1

LCLC-97TM1 = system: LCLC-97TM1
Method in brief: as §1

NCI-H1666 = system: NCI-H1666
Method in brief: as §1

NCI-H1915 = system: NCI-H1915
Method in brief: as §1

NCI-H2087 = system: NCI-H2087
Method in brief: as §1

NCI-H2126 = system: NCI-H2126
Method in brief: as §1

NCI-H2347 = system: NCI-H2347
Method in brief: as §1

NCI-H23 = system: NCI-H23
Method in brief: as §1

NCI-H2405 = system: NCI-H2405
Method in brief: as §1

NCI-H647 = system: NCI-H647
Method in brief: as §1

NCI-H650 = system: NCI-H650
Method in brief: as §1

PC-14 = system: PC-14
Method in brief: as §1

RERF-LC-KJ = system: RERF-LC-KJ
Method in brief: as §1

## Cc1sc2c(c1C)C(c1ccc(Cl)cc1)=N[C@@H](CC(=O)OC(C)(C)C)c1nnc(C)n1-2 [JQ1] + NC(=O)Nc1cc(-c2cccc(F)c2)sc1C(=O)N[C@H]1CCCNC1 [AZD7762] (partner 0.2 µM)
201T; first compound 0.04 µM
  relative viability: 0.716
201T; first compound 0.4 µM
  relative viability: 0.7
201T; first compound 1.265 µM
  relative viability: 0.498
201T; first compound 4 µM
  relative viability: 0.393
ChaGo-K-1; first compound 0.04 µM
  relative viability: 0.875
ChaGo-K-1; first compound 0.1265 µM
  relative viability: 0.89
ChaGo-K-1; first compound 0.4 µM
  relative viability: 0.899
ChaGo-K-1; first compound 1.265 µM
  relative viability: 0.821
ChaGo-K-1; first compound 4 µM
  relative viability: 0.536
EPLC-272H; first compound 0.04 µM
  relative viability: 0.244
EPLC-272H; first compound 0.1265 µM
  relative viability: 0.122
EPLC-272H; first compound 0.4 µM
  relative viability: 0.355
EPLC-272H; first compound 1.265 µM
  relative viability: 0.246
EPLC-272H; first compound 4 µM
  relative viability: 0.214
H3255; first compound 0.04 µM
  relative viability: 0.851
H3255; first compound 0.1265 µM
  relative viability: 0.67
H3255; first compound 0.4 µM
  relative viability: 0.71
H3255; first compound 1.265 µM
  relative viability: 0.411
H3255; first compound 4 µM
  relative viability: 0.277
HCC-78; first compound 0.04 µM
  relative viability: 0.762
HCC-78; first compound 0.1265 µM
  relative viability: 0.574
HCC-78; first compound 0.4 µM
  relative viability: 0.559
HCC-78; first compound 1.265 µM
  relative viability: 0.421
HCC-78; first compound 4 µM
  relative viability: 0.208
HCC-827; first compound 0.04 µM
  relative viability: 0.292
HCC-827; first compound 0.1265 µM
  relative viability: 0.266
HCC-827; first compound 1.265 µM
  relative viability: 0.233
HCC-827; first compound 4 µM
  relative viability: 0.277
LC-2-ad; first compound 0.04 µM
  relative viability: 0.793
LC-2-ad; first compound 0.1265 µM
  relative viability: 0.42
LC-2-ad; first compound 0.4 µM
  relative viability: 0.374
LC-2-ad; first compound 1.265 µM
  relative viability: 0.249
LC-2-ad; first compound 4 µM
  relative viability: 0.204
LCLC-97TM1; first compound 0.04 µM
  relative viability: 0.269
LCLC-97TM1; first compound 0.1265 µM
  relative viability: 0.255
LCLC-97TM1; first compound 0.4 µM
  relative viability: 0.268
LCLC-97TM1; first compound 1.265 µM
  relative viability: 0.097
LCLC-97TM1; first compound 4 µM
  relative viability: 0.0653
NCI-H1666; first compound 0.04 µM
  relative viability: 0.869
NCI-H1666; first compound 0.1265 µM
  relative viability: 0.793
NCI-H1666; first compound 0.4 µM
  relative viability: 0.65
NCI-H1666; first compound 1.265 µM
  relative viability: 0.48
NCI-H1666; first compound 4 µM
  relative viability: 0.488
NCI-H1915; first compound 0.04 µM
  relative viability: 0.729
NCI-H1915; first compound 0.4 µM
  relative viability: 0.653
NCI-H1915; first compound 1.265 µM
  relative viability: 0.437
NCI-H1915; first compound 4 µM
  relative viability: 0.241
NCI-H2087; first compound 0.04 µM
  relative viability: 1.34
NCI-H2087; first compound 0.1265 µM
  relative viability: 1.29
NCI-H2087; first compound 0.4 µM
  relative viability: 1.29
NCI-H2087; first compound 1.265 µM
  relative viability: 0.604
NCI-H2087; first compound 4 µM
  relative viability: 0.383
NCI-H2126; first compound 0.04 µM
  relative viability: 1.08
NCI-H2126; first compound 0.1265 µM
  relative viability: 1.01
NCI-H2126; first compound 0.4 µM
  relative viability: 1.04
NCI-H2126; first compound 1.265 µM
  relative viability: 0.956
NCI-H2126; first compound 4 µM
  relative viability: 0.838
NCI-H2347; first compound 0.04 µM
  relative viability: 0.811
NCI-H2347; first compound 0.1265 µM
  relative viability: 0.917
NCI-H2347; first compound 0.4 µM
  relative viability: 0.724
NCI-H2347; first compound 1.265 µM
  relative viability: 0.445
NCI-H2347; first compound 4 µM
  relative viability: 0.357
NCI-H23; first compound 0.04 µM
  relative viability: 0.208
NCI-H23; first compound 0.1265 µM
  relative viability: 0.21
NCI-H23; first compound 0.4 µM
  relative viability: 0.215
NCI-H23; first compound 1.265 µM
  relative viability: 0.127
NCI-H23; first compound 4 µM
  relative viability: 0.105
NCI-H2405; first compound 0.04 µM
  relative viability: 0.712
NCI-H2405; first compound 0.4 µM
  relative viability: 0.646
NCI-H2405; first compound 1.265 µM
  relative viability: 0.586
NCI-H2405; first compound 4 µM
  relative viability: 0.365
NCI-H647; first compound 0.04 µM
  relative viability: 0.472
NCI-H647; first compound 0.1265 µM
  relative viability: 0.293
NCI-H647; first compound 0.4 µM
  relative viability: 0.25
NCI-H647; first compound 1.265 µM
  relative viability: 0.103
NCI-H647; first compound 4 µM
  relative viability: 0.0446
NCI-H650; first compound 0.04 µM
  relative viability: 0.935
NCI-H650; first compound 0.1265 µM
  relative viability: 0.591
NCI-H650; first compound 0.4 µM
  relative viability: 1
NCI-H650; first compound 1.265 µM
  relative viability: 0.565
NCI-H650; first compound 4 µM
  relative viability: 0.302
PC-14; first compound 0.04 µM
  relative viability: 0.267
PC-14; first compound 0.1265 µM
  relative viability: 0.259
PC-14; first compound 0.4 µM
  relative viability: 0.207
PC-14; first compound 1.265 µM
  relative viability: 0.125
PC-14; first compound 4 µM
  relative viability: 0.0805
RERF-LC-KJ; first compound 0.04 µM
  relative viability: 1.02
RERF-LC-KJ; first compound 0.1265 µM
  relative viability: 0.803
RERF-LC-KJ; first compound 0.4 µM
  relative viability: 0.976
RERF-LC-KJ; first compound 1.265 µM
  relative viability: 0.816
RERF-LC-KJ; first compound 4 µM
  relative viability: 0.358
